Source: article PMC9631745 (ACS Omega, 2022)

Target: human transferrin (Tf; hTf) (Homo sapiens, UniProt P02787)
Assay: isothermal titration calorimetry
Type: binding

human transferrin (Tf; hTf), sequence (P02787 20-698): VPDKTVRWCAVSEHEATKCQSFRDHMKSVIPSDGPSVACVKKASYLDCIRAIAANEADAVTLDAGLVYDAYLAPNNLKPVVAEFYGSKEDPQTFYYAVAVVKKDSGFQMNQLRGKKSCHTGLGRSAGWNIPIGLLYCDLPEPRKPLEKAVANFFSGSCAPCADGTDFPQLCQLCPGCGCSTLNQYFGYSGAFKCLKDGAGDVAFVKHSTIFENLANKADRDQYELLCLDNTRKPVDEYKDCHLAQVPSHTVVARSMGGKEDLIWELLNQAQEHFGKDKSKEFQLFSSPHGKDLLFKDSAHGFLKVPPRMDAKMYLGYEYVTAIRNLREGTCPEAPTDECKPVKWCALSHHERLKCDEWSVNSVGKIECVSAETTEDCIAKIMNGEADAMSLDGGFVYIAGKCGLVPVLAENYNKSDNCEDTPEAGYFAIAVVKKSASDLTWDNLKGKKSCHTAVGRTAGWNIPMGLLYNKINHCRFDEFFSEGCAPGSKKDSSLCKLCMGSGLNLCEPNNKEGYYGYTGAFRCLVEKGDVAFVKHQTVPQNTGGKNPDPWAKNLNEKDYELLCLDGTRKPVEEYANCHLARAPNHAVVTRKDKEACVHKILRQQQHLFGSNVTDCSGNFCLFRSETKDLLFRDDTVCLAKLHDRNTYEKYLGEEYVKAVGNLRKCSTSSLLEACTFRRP

Kd: 1450 nM
Compound: C/C=C1\[C@H]2C=C(C)C[C@]1(N)c1ccc(=O)[nH]c1C2 [Huperzine A]
